The data set in a line: gradient 5% acetonitrile 3 min, to 50% in 2 min, to 85% in 15 min, held 3 min, 100 µL/min. To be noted: column: Zorbax Extend-C18 2.1 x 50 mm; eluents: water / acetonitrile, 0.1% formic acid. The essentials:
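The mobile phases were water and acetonitrile, each with 0.1% formic acid, pumped at 100 μL/min through a Zorbax Extend-C18 column (2.1 × 50 mm, 1.8 μm). Pure standards were injected as mixtures of ~100 molecules and detected by a quadrupole time-of-flight mass spectrometer in positive and negative ionization mode. Retention time came from computationally picked adduct peaks, each inspected by hand.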
`CCOc1cccc2sc(N(CCCN(C)C)C(=O)CN3C(=O)CCC3=O)nc12` had an RP-LC retention time of 559 s.

Regarding `Cc1cc2nn(CC(=O)Nc3ccc(C)c(C)c3)c(=O)n2c(-c2ccccc2)n1`, the RP-LC retention time came out at 868 s.

In the case of `CCc1nc(N)n(CC(=O)Nc2ccc(Br)cc2)c(=O)c1C`, the RP-LC retention time was found to be 666 s.

In the case of `Cc1oc(-c2ccc(NC(=O)Cc3ccc(Cl)cc3)cc2)nc1Cn1cccn1`, the RP-LC retention time turned out to be 941 s.

In turn, `CN1CCN(C(=O)C2CCN(S(=O)(=O)c3cc4c(cc3Cl)NC(=O)CO4)CC2)CC1` returned an RP-LC retention time of 580 s.

As to `O=C(N[C@H]1C[C@@H]2C[C@H]1CN2C(=O)Cc1c(F)cccc1Cl)c1cccs1`, the RP-LC retention time is 710 s.

The molecule `CCOc1ccc(-c2noc(CN3N=NC4C(=O)N(c5cccc(OC)c5)C(=O)C43)n2)cc1OC` (stereo not drawn) returned an RP-LC retention time of 917 s.

Molecule `CC(=O)c1cccc(NC(=O)Cn2c(-c3ccc(Cl)cc3)nc(C)cc2=O)c1` yielded an RP-LC retention time of 1060 s.

Consider `COC(=O)c1ccccc1Nc1c(-c2cccc(O)c2)nc2cnccn12`, for which the RP-LC retention time is 792 s.

In turn, `O=C(CSc1ncnc2c1[nH]c1ccc(F)cc12)N1CCc2ccccc2C1` gave an RP-LC retention time of 891 s.

`Cc1csc(-c2ccc(N3CCN(C(=O)c4ccsc4)CC3)nc2)n1` returned an RP-LC retention time of 762 s.

`Cc1ccc(NC(=O)C(C)C2CCN(C(=O)Nc3ccccc3)CC2)cc1` (stereo not drawn): the RP-LC retention time stood at 860 s.

In the case of `CC(C)n1nnc2cc(S(=O)(=O)N3CCCC3C(=O)N3CCN(c4ccccn4)CC3)ccc21` (stereo not drawn), the RP-LC retention time came to 609 s.

Molecule `CC(NC(=O)C1CCN(Cc2cn(C)c3ccc(Cl)cc23)CC1)c1ccccc1` (stereo not drawn) had an RP-LC retention time of 727 s.

Regarding `CC(C)c1ccc(NC(=O)C2CCc3nc(N4CCOCC4)ncc3C2)cc1` (stereo not drawn), the RP-LC retention time is 888 s.

As for `COc1cccc(N2CCN(C(=O)C3CCCN(c4ncnc5c4nc4n5CCCCC4)C3)CC2)c1` (stereo not drawn), the RP-LC retention time was determined as 627 s.

With `CN(CC1CCOCC1)C(=O)c1cc(F)cc(F)c1`, the RP-LC retention time amounted to 725 s.

Molecule `Cn1cc(-c2nc(C(=O)NCc3cc(F)cc(F)c3)cs2)c2cccnc21` registered an RP-LC retention time of 944 s.

Take `CC(C)(C)c1noc(-c2ccc(-n3cnc(C(=O)N4CCSCC4)c3)nc2)n1`: the RP-LC retention time came to 963 s.

In turn, `COc1ccc(-c2cc(C(=O)Nc3cc(C)ccc3C)nn2C2CCS(=O)(=O)C2)cc1` (stereo not drawn) registered an RP-LC retention time of 982 s.

`COc1cc(NC(=O)CN2CCSc3ccccc32)cc(OC)c1OC`: the RP-LC retention time is 890 s.

For the molecule `COC(=O)c1ccc(CN2CC(=O)N3CCCC3C2=O)cc1` (stereo not drawn), the RP-LC retention time turned out to be 616 s.

For `CCOc1ccc(-n2c(N3CCCC3)nc3cc(C(=O)OC)ccc3c2=O)cc1`, the RP-LC retention time turned out to be 963 s.

Consider `O=C(c1cccs1)N1CC(C(=O)N2CCN(c3ncccn3)CC2)C1`, for which the RP-LC retention time was determined as 604 s.

The molecule `Cn1nc(-c2nnc(-c3ccccc3)o2)c2c1CCN(S(=O)(=O)c1cc(F)ccc1F)C2` displayed an RP-LC retention time of 940 s.

Molecule `Cc1sc2ccn(Cc3ccc(F)cc3)c(=O)c2c1C(=O)NCC1CCCO1` (stereo not drawn) registered an RP-LC retention time of 775 s.

For `COC(=O)c1ccc(C2CC(=O)Nc3c(-c4ccc(OC)cc4)csc32)cc1` (stereo not drawn), the RP-LC retention time turned out to be 1000 s.

Molecule `COc1ccc(N2CC(c3nc(-c4cccs4)no3)CC2=O)cc1Cl` (stereo not drawn) had an RP-LC retention time of 930 s.

Take `O=C(Nc1ccc(-c2ccc(=O)[nH]n2)cc1)c1ccc(-n2cccn2)nn1`: the RP-LC retention time worked out at 643 s.

`O=C(Cn1c(=O)n(CCc2ccccc2)c(=O)c2ncccc21)Nc1ccc2c(c1)OCO2` registered an RP-LC retention time of 734 s.

Regarding `CSc1cccc(NC(=O)Cn2c(=O)n(-c3ccc(C)cc3)c(=O)c3c2cc(C)n3C)c1`, the RP-LC retention time came to 910 s.

`CC(C)n1ccc(C(=O)Nc2nnc(-c3cc(Cl)sc3Cl)o2)n1` gave an RP-LC retention time of 858 s.

In the case of `Cn1cc(-c2cc3n(n2)CCC(=O)N3CC(=O)NCCCN2CCCCC2)c2ccccc21`, the RP-LC retention time amounted to 616 s.

`CCc1ccc(OC(C)C(=O)N(Cc2ccc(C)o2)C2CCS(=O)(=O)C2)cc1` (stereo not drawn) gave an RP-LC retention time of 984 s.

For the molecule `Cc1nn2c(S(=O)(=O)N3CCN(C4CCCCC4)CC3)c(C)nc2s1`, the RP-LC retention time amounted to 608 s.

On to `CC(=O)N(Cc1nn(C)c2c1CN(S(=O)(=O)c1ccc(F)c(Cl)c1)CC2)c1ccccc1`, for which the RP-LC retention time stood at 860 s.

The molecule `Cc1noc2nc(C)n(CC(=O)Nc3ccccc3C(F)(F)F)c(=O)c12` had an RP-LC retention time of 779 s.

Take `CCOC(=O)c1cccc(NC(=O)CSc2ccc(N3CCCC(C(=O)NC4CC4)C3)nn2)c1` (stereo not drawn): the RP-LC retention time stood at 680 s.

With `Cc1oc2ccn(Cc3ccc(F)cc3)c(=O)c2c1C(=O)NCC1CC1`, the RP-LC retention time is 988 s.

In turn, `Cc1cc(N2CCN(C)CC2)nc(N2CCN(C(=O)c3ccc(Br)cc3)CC2)n1` showed an RP-LC retention time of 557 s.

In turn, `O=C(c1ccc(OCC2CCCN2C(=O)c2cccs2)cc1)N1CCCC1` (stereo not drawn) gave an RP-LC retention time of 815 s.

Turning to `O=C(O)CCC1CCN(S(=O)(=O)c2ccccc2F)CC1`, the RP-LC retention time was determined as 751 s.

In turn, `CC(=O)c1cccc(NC(=O)N2CCCN(c3nc4ccccc4n4cccc34)CC2)c1` registered an RP-LC retention time of 647 s.

Regarding `CN1C(=O)c2cccnc2Sc2cc(NC(=O)c3ccc(C(F)(F)F)cc3)ccc21`, the RP-LC retention time was 910 s.

`CCOc1ccc(-c2ccc(=O)n(Cc3nc(-c4ccc(C)cc4)no3)n2)cc1` showed an RP-LC retention time of 1150 s.

In the case of `COc1ccc(CCc2nc3nccc(-c4ccc(OC)cc4F)n3n2)cc1`, the RP-LC retention time stood at 941 s.

As for `COC(=O)c1cnc2nc(C)ccc2c1Nc1cc(OC)cc(OC)c1`, the RP-LC retention time was 735 s.

`CCC1Oc2ccc(S(=O)(=O)N3CCC(C(=O)NC4CCCCCCC4)CC3)cc2NC1=O` (stereo not drawn) registered an RP-LC retention time of 977 s.

The molecule `CC(=O)Nc1cc(NC(C)=O)ncn1` showed an RP-LC retention time of 644 s.

For the molecule `O=C(NC1CCCCC1)c1csc(-c2ccc(N3CCOCC3)nc2)n1`, the RP-LC retention time worked out at 916 s.

`CCC1CN(C(=O)N2CCC(C(=O)NCCN3CCCC3)CC2)c2ccccc2O1` (stereo not drawn) returned an RP-LC retention time of 620 s.

The molecule `CCCN1CCCCc2cc(C(=O)NC)sc21` showed an RP-LC retention time of 861 s.

In turn, `COc1ccc(S(=O)(=O)N2CC(C(=O)NC3CCCC3)Oc3cc(C)ccc32)cc1` (stereo not drawn) showed an RP-LC retention time of 1100 s.

`CCCn1cc(S(=O)(=O)Nc2cc(F)cc(F)c2)c2cccnc21` had an RP-LC retention time of 890 s.

Regarding `CCCN1C(=O)C2CCC(=O)N2c2ccc(C(=O)NCCCN3CCCC3=O)cc21` (stereo not drawn), the RP-LC retention time is 631 s.

In the case of `Cc1ccc(-c2nc3n(CC(=O)NC4CC4)c4c(c(=O)n3n2)CCC4)cc1`, the RP-LC retention time came out at 702 s.

Regarding `CCCC(=O)Nc1ccc2nc(N3CCN(CC(=O)N4CCCCCC4)CC3)cc(C(=O)O)c2c1`, the RP-LC retention time worked out at 587 s.

The molecule `O=C1c2ccccc2-c2c1c1ccccc1c(=O)n2Cc1ccccc1` returned an RP-LC retention time of 1130 s.

Turning to `O=C(C1=CN(c2cc(F)cc(F)c2)c2ccccc2S1(=O)=O)N1CCCCC1`, the RP-LC retention time came out at 873 s.

`CCc1ccc(-n2nnc(C(=O)N3CCCCC3C)c2-c2cccnc2)cc1` (stereo not drawn) registered an RP-LC retention time of 866 s.

In turn, `O=C(Cn1ccn2nc(-c3ccccc3)c(CO)c2c1=O)Nc1ccc(F)cc1F` came in with an RP-LC retention time of 781 s.

Turning to `Cc1ccc(F)cc1NS(=O)(=O)c1cc2n(c1)CCCN(C)C2=O`, the RP-LC retention time stood at 716 s.

As for `CSc1ccc(-c2nc3cnccn3c2Nc2cccc(Cl)c2C)cc1`, the RP-LC retention time turned out to be 1060 s.

Molecule `CCOc1cc(=O)n2c(c1C(=O)N1CCOCC1)CCCCC2` showed an RP-LC retention time of 601 s.

Regarding `CCOc1ccc(CNC(=O)c2cn3cc(Cl)ccc3n2)cc1`, the RP-LC retention time came to 863 s.

For `Cc1cc2occ(CN(C)CCN(C)Cc3cn(-c4cccc(C(F)(F)F)c4)c4ccccc34)c(=O)c2cc1C`, the RP-LC retention time turned out to be 1090 s.

Turning to `CN1C(=O)c2ccccc2Oc2ccc(C(=O)NC3CCCCC3)cc21`, the RP-LC retention time turned out to be 891 s.

As for `CCN1C(=O)c2cccnc2Sc2cc(NC(=O)c3ccccc3C(F)(F)F)ccc21`, the RP-LC retention time is 840 s.

Turning to `COc1cc(NC(=O)C2CCCN(c3nc4ccccc4nc3OC)C2)c(OC)cc1Cl` (stereo not drawn), the RP-LC retention time stood at 1290 s.

`CC1CCN(S(=O)(=O)c2cccc(-c3cn4cc(Cl)ccc4n3)c2)CC1` showed an RP-LC retention time of 1000 s.

`COc1ccccc1NC(=O)Nc1nc(CC(=O)N2CCC(C(N)=O)CC2)cs1` displayed an RP-LC retention time of 640 s.

For `COCCN1C(=O)c2ccccc2C(C(=O)N2CCN(c3ccccn3)CC2)C1c1cccs1` (stereo not drawn), the RP-LC retention time worked out at 621 s.

Molecule `COc1ccc(OC)c(NC(=O)C2CCCN(c3nnc4ccc(Cl)cn34)C2)c1` (stereo not drawn) gave an RP-LC retention time of 810 s.

Take `C=CCn1c(=O)c2c(nc3n2CC(C)CN3c2cc(C)cc(C)c2)n(C)c1=O` (stereo not drawn): the RP-LC retention time was determined as 1040 s.

In the case of `COc1ccc2cc(C(=O)N3CCC(CC(=O)NCCc4c[nH]c5ccc(C)cc45)CC3)[nH]c2c1`, the RP-LC retention time is 817 s.

As for `CCOc1ccc(NC(=O)c2[nH]c3cc(C)sc3c2CN2CCOCC2)cc1`, the RP-LC retention time was 1160 s.

Regarding `CC(C)NC(=O)Cn1nc2c3cc(-c4ccc(C(C)C)cc4)nn3ccn2c1=O`, the RP-LC retention time came out at 911 s.

`COC(=O)c1cccc(NC(=O)c2csc(-c3cn(C)c4ncccc34)n2)c1` returned an RP-LC retention time of 984 s.

Source of the values: the METLIN SMRT retention time set (Domingo-Almenara et al. 2019).
